# Test results reported in US9320760B2, “Compositions and methods of use of compounds to increase cancer patient survival time” (BioNumerik Pharmaceuticals, Inc., priority 2008, dated 2016).
# “Also recorded” adds a separate entry of the source.
# Experiments:
# [1] = tested on: patients with advanced non-small cell lung carcinoma (NSCLC), including the adenocarcinoma sub-type; assay: Japan Phase III Clinical Trial (paclitaxel + cisplatin with Tavocept or placebo); format: in vivo, human
# Procedure: Patients admitted into the trial included those patients without previous treatment (excluding surgical treatment, administration of Picibanil into the serous membrane, irradiation of 30% or less hematopoietic bone, or oral chemotherapeutic agents within 3 months of entry in the trial).
# The Japan Phase III Clinical Trial was conducted as a double-blind study because peripheral neuropathy is diagnosed based on subjective symptoms evaluated through clinical interviews, lab tests, and the like. Accordingly, evaluations by both physicians and patients are highly important. […] A placebo was used as control since there is no established therapy or drug for preventing peripheral neuropathy. Because the severity of peripheral neuropathy is evaluated based on patient's reports (i.e., subjective symptoms), the Peripheral Neuropathy Questionnaire (PNQ©) was used in primary evaluation. CIPN-20 and NCI-CTC were used in secondary evaluation. The incidence and severity of adverse reactions, time to their onset, etc. and the like, were compared between patients treated with Tavocept™ and those given a placebo using the aforementioned methods.
# [2] = target: T1, GR + GRX + GSH (coupled glutaredoxin/glutathione/glutathione reductase system) (Homo sapiens, UniProt P35754); assay: NADPH oxidation, coupled GRX/GSH/GR system; format: biochemical
# T1 sequence (P35754 1-106): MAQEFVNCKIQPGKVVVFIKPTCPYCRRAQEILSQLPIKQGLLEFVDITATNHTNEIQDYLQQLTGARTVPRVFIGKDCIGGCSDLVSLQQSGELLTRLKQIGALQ
# Procedure: The Formula (I) compound was utilized at a concentration of 0.5 mM.
# [3] = tested on: non-small cell lung carcinoma (NSCLC) cell lines; assay: cytotoxicity study in combination with chemotherapeutic agents, NSCLC cell lines; format: cell-based, human; conditions: Tavocept in combination with cisplatin vs cisplatin only controls
# [4] = tested on: breast cancer cell lines; assay: cytotoxicity study in combination with cisplatin, breast cancer cell lines; format: cell-based, human; conditions: Tavocept in combination with cisplatin vs cisplatin only controls
# [5] = target: T2, Thioredoxin Reductase (Bos taurus, UniProt O62768); assay: NADPH oxidation at 340 nm, thioredoxin reductase only; format: biochemical, bovine
# T2 sequence (O62768 1-499): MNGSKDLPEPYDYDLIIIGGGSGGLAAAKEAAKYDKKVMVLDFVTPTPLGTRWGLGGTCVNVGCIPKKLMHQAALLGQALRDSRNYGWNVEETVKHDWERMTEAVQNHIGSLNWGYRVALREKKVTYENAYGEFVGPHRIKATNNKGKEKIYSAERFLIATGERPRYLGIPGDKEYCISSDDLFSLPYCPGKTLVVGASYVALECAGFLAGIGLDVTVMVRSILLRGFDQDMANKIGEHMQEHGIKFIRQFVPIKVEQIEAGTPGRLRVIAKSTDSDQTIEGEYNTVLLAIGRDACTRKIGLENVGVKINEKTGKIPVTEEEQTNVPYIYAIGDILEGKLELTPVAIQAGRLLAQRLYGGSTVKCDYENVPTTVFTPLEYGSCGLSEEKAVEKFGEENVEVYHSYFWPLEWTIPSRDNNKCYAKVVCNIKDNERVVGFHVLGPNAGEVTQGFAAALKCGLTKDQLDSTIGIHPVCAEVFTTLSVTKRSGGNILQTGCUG
# Procedure: (§1) Biochemistry 21:6628-6633 (1982).
# (§2) Data was then collected and plotted in Microsoft Excel. Error calculations, and graphical representations were performed in Microsoft Excel and Kaleidograph (ver. 3.5). Nonlinear data was graphically rendered using Kaleidograph. ANOVA and other statistical analyses were performed using SAS (ver. 8.2). Unless otherwise noted, significance level was set at 0.05, and error bars represent actual experimental standard deviation.
# (§3) It should be noted that for the purposes of FIG. 17 only, thioredoxin is labeled TXR and thioredoxin reductase is labeled TRR.
# [6] = tested on: whole cells; assay: whole cell mediated disulfide reduction (α-lipoic acid, hydroxyethyldisulfide); format: cell-based; conditions: treatments with paclitaxel, cisplatin and Tavocept
# [7] = target: T3, Thioredoxin Reductase + Thioredoxin (Bos taurus, UniProt O97680); assay: NADPH oxidation at 340 nm, coupled thioredoxin (TX)/thioredoxin reductase (TXR)/NADPH system; format: biochemical, bovine
# T3 sequence (O97680 1-105): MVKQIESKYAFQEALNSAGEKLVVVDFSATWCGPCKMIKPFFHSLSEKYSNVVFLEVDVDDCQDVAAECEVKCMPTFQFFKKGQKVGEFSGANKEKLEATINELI
# Procedure: as §1, §2, §3
# Table 4, below, illustrates that various Formula (I) compounds (i.e., disulfide-containing compounds) of the present invention can serve as alternate substrate inhibitors for the coupled thioredoxin (TX)/thioredoxin reductase (TXR)/NADPH system as measured by the oxidation of NADPH. In Table 4, the Formula (I) compounds were utilized at a concentration of 0.5 mM.
# [8] = tested on: human breast, ovarian and lymphoma cancer cell lines; assay: interference with paclitaxel induced apoptosis (PARP cleavage, Bcl-2 phosphorylation, DNA laddering); format: cell-based; conditions: in vitro
# Description: (§4) An important element of Tavocept's™ effectiveness as a compound in the treatment of cancer is its selectivity for normal cells versus cancer cells and its inability to interfere with the anti-cancer activity of chemotherapeutic agents.
# [9] = tested on: patients with advanced stage (IIIB/IV) non-small cell lung carcinoma (NSCLC), including the adenocarcinoma sub-type; assay: U.S. Phase II NSCLC Clinical Trial (dose-dense docetaxel + cisplatin with or without Tavocept); format: in vivo, human
# Procedure: Darbepoetin alfa (200 μg; subcutaneous administration) was administered on day one of the chemotherapy cycle and pegfilgrastim (6 mg subcutaneous administration) was administered on day two of the chemotherapy cycle if the patient's hemoglobin levels were ≦11 g/dL. The aforementioned chemotherapy cycle was repeated every two weeks, for up to a total of six cycles.
# [10] = interference with paclitaxel and platinum regimens in animal models; format: in vivo
# Description: as §4
# [11] = FIG. 7, Tavocept arm (5 in the placebo arm)
# [12] = adenocarcinoma patients in the Tavocept arm
# [13] = Disulfide 0.5 mM, minimum of triplicate assays
# [14] = FIG. 13, Tavocept arm versus non-Tavocept arm
# [15] = FIG. 14, adenocarcinoma patients, Tavocept vs non-Tavocept arm
# [16] = FIG. 15, Tavocept arm versus non-Tavocept arm
structure (smiles),measurement,setting,value
"O=S(=O)([O-])CCSSCCS(=O)(=O)[O-].[Na+].[Na+] [Tavocept™, disodium 2,2′-dithio-bis-ethane sulfonate]","reduction in severe (Grade D or E) peripheral neuropathy (PNQ, Primary Endpoint)","[1]; FIG. 5, paclitaxel/Tavocept/cisplatin regimen vs paclitaxel/saline placebo/cisplatin regimen, NSCLC patients",~50%
same,patients with Grade 3 (severe) decrease in hematocrit levels,[1]; [11],1 patients
same,patients with Grade 3 (severe) decrease in red blood cell levels,[1]; [11],1 patients
same,patients with Grade 3 (severe) decrease in hemoglobin,"[1]; FIG. 7, Tavocept arm (8 in the placebo arm)",2 patients
same,response rate as measured by the IRC,"[1]; FIG. 8, Tavocept arm (28.6% in the placebo arm)",33.3%
same,"Response Rate, as measured by physicians (Doctor)","[1]; FIG. 8, Tavocept arm (33.0% in the placebo arm)",41.9%
same,increase in median survival time,"[1]; FIG. 9, NSCLC patients incl. adenocarcinoma, paclitaxel/Tavocept/cisplatin vs paclitaxel/saline placebo/cisplatin",up to 40 days
same,"survival period, female patient population","[1]; FIG. 10, female NSCLC patients, paclitaxel/Tavocept/cisplatin vs paclitaxel/saline placebo/cisplatin",longer survival period
same,"increase in median survival time, adenocarcinoma patients","[1]; FIG. 11, adenocarcinoma sub-type, paclitaxel/Tavocept/cisplatin vs paclitaxel/saline placebo/cisplatin",up to 138 days
same,"increase in median survival time, adenocarcinoma patients","[1]; FIG. 11, adenocarcinoma sub-type, paclitaxel/Tavocept/cisplatin vs paclitaxel/saline placebo/cisplatin, listed as Tavocept",approximately 138 days
same,chemotherapy-induced vomiting/emesis and kidney damage,"[1]; Tavocept and chemotherapy vs chemotherapy and placebo, result in words",medically-important reductions
same,"increase in median survival time, adenocarcinoma patients",[1]; [12],~4.5 months
same,"NADPH Oxidation, GR + GRX + GSH","[2]; Disulfide 0.5 mM, n = 6",15.3 ± 1.0 nmol/min/mL
same,substrate-like activity with glutaredoxin / alternative substrate inhibitor for the coupled GRX/GSH/GR system,"[2]; in the presence of reduced glutathione and glutathione reductase, result in words",exhibits substrate-like activity
same,cell death,[3],increase in cell death
same,cell death,[4],increase in cell death
same,"NADPH Oxidation, Thioredoxin Reductase only",[5]; [13],0.3 ± 0.01 nmol/min/mL
same,NADPH oxidation by TXR in the absence of TX,[5]; FIG. 17,indistinguishable from background
same,substrate for thioredoxin reductase alone,[5]; result in words,not thioredoxin reductase alone; also recorded: not for TXR
same,whole cell mediated disulfide reduction,[6],declined
same,"NADPH Oxidation, Thioredoxin Reductase + Thioredoxin",[7]; [13],13.1 ± 0.2 nmol/min/mL
same,NADPH oxidation by TXR in the presence of TX,"[7]; FIG. 17, increasing Tavocept concentration",concentration-dependent increase
same,oxidation of reduced thioredoxin to oxidized thioredoxin,[7]; result in words,drives the oxidation
same,interference with paclitaxel induced apoptosis,[8],does not interfere
same,median patient survival (time to death),"[9]; FIG. 12, NSCLC incl. adenocarcinoma, Tavocept arm (10.74 months non-Tavocept arm), 95% confidence limit",11.66 months
same,"hazard ratio, survival","[9]; FIG. 12, NSCLC incl. adenocarcinoma, Tavocept vs non-Tavocept arm",0.750
same,increase in patient survival,"[9]; FIG. 12, NSCLC, Tavocept arm versus non-Tavocept arm",0.92 month
same,patient progression-free survival (PFS),"[9]; FIG. 13, Tavocept arm (9.25% non-Tavocept arm), 95% confidence interval",18.7%
same,overall patient one-year survival (OS) rate,"[9]; FIG. 13, Tavocept arm (39.5% non-Tavocept arm), 95% confidence interval",50.7%
same,increase in overall patient one-year survival (OS) rates,[9]; [14],11.2%
same,increase in patient progression-free survival (PFS),[9]; [14],9.5%
same,"median patient survival (time to death), adenocarcinoma","[9]; FIG. 14, adenocarcinoma patients, Tavocept arm (9.10 months non-Tavocept arm), 95% confidence limit",15.64 months
same,"increase in patient survival, adenocarcinoma","[9]; FIG. 14, adenocarcinoma patients, Tavocept arm versus non-Tavocept arm",6.54 months
same,"increase in patient survival, adenocarcinoma","[9]; FIG. 14, adenocarcinoma patients, Tavocept arm versus non-Tavocept arm, listed as Tavocept",~6.5 months
same,"hazard ratio, survival, adenocarcinoma",[9]; [15],0.601
same,"reduction in the patient mortality rate, adenocarcinoma",[9]; [15],40%
same,reduction in dehydration (Grade 3 and Grade 4 treatment-related adverse events),[9]; [16],50%
same,reduction in hypomagnesaemia (Grade 3 and Grade 4 treatment-related adverse events),[9]; [16],100%
same,reduction in nausea (Grade 3 and Grade 4 treatment-related adverse events),[9]; [16],38.5%
same,reduction in vomiting (Grade 3 and Grade 4 treatment-related adverse events),[9]; [16],71.5%
same,"increase in median survival time, adenocarcinoma patients",[9]; [12],approximately 198 days
same,interference with paclitaxel and platinum regimens,[10],did not interfere
